From publication PMC4971421, “Redox-Dependent Modulation of T-Type Ca^2+ Channels in Sensory Neurons Contributes to Acute Anti-Nociceptive Effect of Substance P” (Antioxidants & Redox Signaling, 2016)
Ends that are not written are not given here.

Assays:
[1] = tested on: small-diameter DRG neurons; assay: DRG neuron excitability, perforated patch current clamp; assay type: cell-based, rat
Protocol: To knock down CaV3.2, DRGs were dissociated as described ([13]); immediately after dissociation, DRG pellets were resuspended in 900 μl DMEM (without GlutaMax I, serum or antibiotics), to which a mixture of 9 μl Lipofectamine RNAiMAX (Invitrogen) and either a mix of three anti-Cacna1h Stealth siRNAs (RSS350285, RSS350286, RSS350287; Life Technologies; 200 nM each) or a scrambled control oligo (Stealth RNAi™ siRNA Negative Control; Life Technologies; 200 nM) were added immediately before resuspension. Cultures were than plated in 50 μl droplets onto glass coverslips that were coated with poly-D-lysine and incubated for 5–6 h; the transfection media were then replaced with full DRG culture medium. Patch-clamp recordings were conducted 24–48 h after the transfection. The following primers were used for reverse transcription polymerase chain reaction (RT-PCR) analysis: • Cacna1h sense: 5′-[…]-3′ • Cacna1h AS: 5′-[…]-3′ • Gapdh sense: 5′-[…]-3′ • Gapdh AS: 5′-[…]-3′
Neuronal excitability was studied using the amphotericin B-perforated patch-clamp current technique ([13]). The extracellular solution contained the following (in mM): 160 NaCl, 2.5 KCl, 5 CaCl2, 1 MgCl2, 10 HEPES, and 8 Glucose. The intracellular solution contained the following (in mM): 145 KCl, 15 NaCl, 5 MgCl2, 10 HEPES, and 250 μg/ml Amphotericin B. The access resistance was typically within […]. APs were generated by an injection of 200 pA current for 1 s from a holding current of 0 pA. Rheobase was determined from a train of current steps from 0 to 400 pA delivered in 20-pA increments. Current clamp recordings were sampled at 12.5 kHz. Bridge balance adjustments were not applied, since only relative changes in Erest, AP number, and rheobase were investigated.

rat hind paw [2] = assay: Nocifensive behavior after intraplantar hind-paw injection; assay type: in vivo; details: hind-paw injection 50 μl, 30 min
Protocol: Sprague–Dawley rats (body weight, 170–180 g) were grouped randomly and allowed to acclimate for at least 30 min in a transparent observation chamber before the experiment. Animals received a 50-μl intraplantar injection of ST101 (0.001–10 nmol/site), BK (10 nmol/site), RTG (1–10 nmol/site), Z944 (0.05–5 nmol/site), SP (0.5–5 nmol/site), or saline, respectively, into the right hind paw. For evaluation of the acute “spontaneous” pain, animals were video-recorded for 30 min after the injection and protective (“nocifensive”) behavior was analyzed as time spent licking, biting, lifting, and flinching the injected paw. The analyses were performed by an observer who was unaware of treatment allocations. In the pre-injection experiments, the right hind paw of the animal received a pre-injection of 50 μl Z944 (0.05–0.5 nmol/site), RTG (1–10 nmol/site), SP (0.5 nmol/site), Z944 (0.05–0.5 nmol/site)+RTG (1 nmol/site), or saline; 5 min later, on the same paw, the animal received a further 50-μl injection of BK (10 nmol/site) together with the pre-injection drug mix. Nocifensive behavior was analyzed as described earlier.

[3] = tested on: delayed-rectifier K^+ current in DRG neurons; assay: Delayed-rectifier K+ current in DRG neurons; assay type: cell-based, rat; details: 1 nM
CaV3 = details: cited from earlier work
Protocol: The T-type Ca^2+ current is an important regulator of sensory neuron excitability ([10], [17], [18], [20], [23], [24], [51], [71], [75]). […] Z944 (1 μM) inhibited LVA curren ...

[4] = tested on: T-type Ca^2+ channels (LVA Ca^2+ current) in DRG neurons; assay: LVA (T-type) Ca2+ current, whole-cell patch clamp, cultured small-diameter DRG neurons; assay type: cell-based, rat; details: 1 nM; mean ± SEM, n = 7; SEM
Protocol: (§1) DRG neurons from adult male Sprague–Dawley rats (170–180 g) were dissociated as previously described ([13], [29]) and cultured in DMEM supplemented with GlutaMax I, 10% fetal calf serum, penicillin (50 U/ml), and streptomycin (50 μg/ml) on glass coverslips that were coated with poly-D-lysine for 2–5 days in a humidified incubator (37°C, 5% CO2). No growth factors were added to the culture media. HEK 293 cells were cultured in the same DMEM media; cells were passaged every 2 days. Human NK1 receptor (GenBank accession No. AY462098) complementary DNA (cDNA) was from the Missouri Science and Technology cDNA Resource Center. WtCaV3.1 (GenBank accession No. AF027984), wtCaV3.2 (GenBank accession No. AF051946), CaV3.1Q172H, and CaV3.2H191Q were kindly provided by Dr E. Perez-Reyes (University of Virginia). HEK293 cells were transfected using Lipofectamine 2000 (Invitrogen) according to the manufacturer's instructions. ST101 was synthesized in house; Z944 was from Toronto Research Chemicals; PTX was from Enzo Life Science; and FluoZin-3AM was from Life Technologies. All other chemicals were from Sigma.
All recordings were made using Multiclamp 700B amplifier in combination with pCLAMP 10.4 software (Molecular Devices). Voltage-clamp recordings from DRG neurons were made using whole-cell patch clamp. The standard bath solution contained the following (in mM): 150 TEA-Cl; 2.5 CsCl; 2.5 CaCl2; 10 HEPES; 0.5 MgCl2; and 10 glucose (pH 7.4 adjusted with CsOH). The standard pipette solution contained the following (in mM): 110 CsCl; 3 MgCl2; 10 EGTA; 10 HEPES; 3 Mg-ATP; and 0.6 GTP (pH 7.4 adjusted with CsOH). The access resistance was typically within 4–8 MΩ. T-type calcium currents (LVA) were measured by 50 ms square voltage pulses to −40 mV from a holding potential of −90 mV. HVA currents were measured by 200 ms square voltage pulses to 0 mV from a holding potential of −90 mV.
where y is the current inhibition; A1 and A2 are the maximum and minimum effects, respectively; x is the S9SP concentration; and nH is the Hill coefficient.

rat hind paw [5] = assay: Cotton swab test (gentle touch); assay type: in vivo; details: 50 μl; 0.001 nmol/site
Protocol: (§2) For measurement of sensitivity to gentle touch and mechanical hyperalgesia, two methods were used. (i) Cotton swab test was performed as previously described ([53]). Briefly, rats were allowed to acclimate in a cage with a wire mesh bottom for at least 30 min and then were manually probed with a “cotton swab” pulled from a Q-tip (to approximately three times the original size). A swab was applied in a sweeping motion underneath the rats’ paws, and the withdrawal responses were recorded. Five sweeps were applied in each test, with at least 10 s between each sweep; withdrawal score was calculated as a percentage of positive responses. (ii) The von Frey test was performed using a calibrated range of filaments with different bending forces (2, 4, 6, 8, 10, and 15 g; Stoelting Co.). A single filament was applied perpendicularly to the plantar surface of the hind paw for five times, with an interval of 5 s, and it was scored for withdrawal responses. Each force was probed five times, the number of withdrawals out of five trials was counted, and the percentage of withdrawal responses was calculated. Both types of assays were performed 8 min after the hind-paw drug injection.

[6] = tested on: voltage-gated Na^+ current in DRG neurons; assay: Voltage-gated Na+ current in DRG neurons; assay type: cell-based, rat; details: 1 nM
rat hind paw [7] = assay: Hargreaves test, paw withdrawal latency to noxious heat; assay type: in vivo; details: hind-paw injection 0.001 nmol/site; 8 min after injection
Protocol: For measurement of thermal hyperalgesia, the change in the latency of hind-paw withdrawal in response to noxious heat was recorded using the Hargreaves’ plantar method (Ugo Basile) at 8 min after the hind-paw injection of drugs; the heat source was set to 25% of the maximal intensity.

rat hind paw [8] = assay: von Frey test; assay type: in vivo; details: 50 μl; 0.001 nmol/site; filaments 2–15 g; 8 min after injection
Protocol: as §2

[9] = tested on: high-voltage-activated (HVA) Ca^2+ currents in DRG neurons; assay: HVA Ca2+ current, whole-cell patch clamp, DRG neurons; assay type: cell-based, rat; details: 1 nM
Protocol: as §1, with “ST101 was synthesized in house; Z944 was from Toronto Research Chemicals; PTX was from Enzo Life Science; and FluoZin-3AM was from Life Technologies. All other chemicals were from Sigma.” left out
All recordings were made using Multiclamp 700B amplifier in combination with pCLAMP 10.4 software (Molecular Devices). […] T-type calcium currents (LVA) were measured by 50 ms square voltage pulses to −40 mV from a holding potential of −90 mV. HVA currents were measured by 200 ms square voltage pulses to 0 mV from a holding potential of −90 mV.

Molecule | AP number ([1]; 250 nM) | Erest ([1]; 250 nM) | rheobase ([1]; 250 nM) | nocifensive behavior (rat hind paw [2]; 10 nmol/site) | effect on delayed-rectifier K^+ current [3] | resting membrane potential (Erest) [1] | action potential (AP) firing ([1]; 200 pA for 1 s) | small DRG neuron excitability ([1]; perforated current clamp) | effect on Erest, AP number, or rheobase in Cacna1h knocked-down neurons ([1]; siRNA against Cacna1h) | EC50, CaV3 potentiation (CaV3) | enhancement of peak LVA current [4] | nocifensive behavior (rat hind paw [2]; 0.001–10 nmol/site) | sensitivity to light touch, cotton swab assay (rat hind paw [5]) | effect on voltage-gated Na^+ current [6] | paw withdrawal latency on radiant heat exposure (rat hind paw [7]) | response to von Frey filament stimulation (rat hind paw [8]) | effect on HVA current [9]
RPPGFSPFR [BK, bradykinin, pro-algesic signaling peptide] | increased | depolarized | significantly reduced | strong nocifensive response |  |  |  |  |  |  |  |  |  |  |  |  | 
O=C1N=C2C=CC=CN2C12Cc1ccccc1C2 [ST101, spiro[imidazo[1,2-a]pyridine-3,2-indan]-2(3H)-one] |  |  |  |  | no effect | depolarized | significantly increased | increased | neither Z994 nor ST101 produced any significant effect | sub-nanomolar range | 50.6% ± 14.1% | moderate but significant protective effect | ineffective | no effect | significantly reduced | greatly increased response rates | without an effect
